Experimental data as given in patent US8592422B2, “Bicyclic triazole and pyrazole lactams as allosteric modulators of mGluR5 receptors” (Vanderbilt University, priority 2010, dated 2013).

Biological target: T1, human mGluR5a receptor (Homo sapiens, UniProt P41594)
T1 construct: cDNA subcloned into pcDNA3.1(-)
Experiment: Cell-based functional Ca2+ mobilization assay (FDSS), potentiation of glutamate EC20 response
Conditions: for pEC50 / EC50: HEK cells transfected with human mGluR5 (H10H or H12H), in presence of EC20 glutamate; for EC50: read-out: EC50; for Emax (%) / Emax: maximum % effect in concentration-response curve, as percent of response to maximally effective glutamate
Experimental: Human embryonic kidney (HEK) cells transfected with rat mGluR5 were plated in clear bottom assay plates for assay in a Functional Drug Screening System (FDSS). In the alternative assay, HEK cells transfected with human mGluR5 were plated for assay in the FDSS. In some cases the HEK cells transfected with human mGluR5 were the H10H cell line. Alternatively, the HEK cells transfected with human mGluR5 were the H12H cell line. […] The cells were loaded with a Ca^2+-sensitive fluorescent dye (e.g., Fluo-4), and the plates were washed and placed in the FDSS instrument. After establishment of a fluorescence baseline for twelve seconds, the compounds of the present invention were added to the cells, and the response in cells was measured. Alternatively, in various further aspects, after establishment of a fluorescence baseline for about three seconds, the compounds of the present invention were added to the cells, and the response in cells was measured. Five minutes later, an mGluR5 agonist (e.g., glutamate, 3,5-dihydroxyphenylglycine, or quisqualate) was added to the cells, and the response of the cells was measured.
The above described assay operated in two modes. In the first mode, a range of concentrations of the present compounds were added to cells, followed by a single fixed concentration of agonist. If a compound acted as a potentiator, an EC50 value for potentiation and a maximum extent of potentiation by the compound at this concentration of agonist was determined by non-linear curve fitting. In the second mode, several fixed concentrations of the present compounds were added to various wells on a plate, followed by a range of concentrations of agonist for each concentration of present compound; the EC50 values for the agonist at each concentration of compound were determined by non-linear curve fitting. A decrease in the EC50 value of the agonist with increasing concentrations of the present compounds (a leftward shift of the agonist concentration-response curve) is an indication of the degree of mGluR5 potentiation at a given concentration of the present compound. An increase in the EC50 value of the agonist with increasing concentrations of the present compounds (a rightward shift of the agonist concentration-response curve) is an indication of the degree of mGluR5 antagonism at a given concentration of the present compound. The second mode also indicates whether the present compounds also affect the maximum response to mGluR5 to agonists.
The mGluR5 activity was determined using the metabotropic glutamate receptor activity assays in human embryonic kidney cells as described herein, wherein the human embryonic kidney cells were transfected with human mGluR5. The compounds in Table 1 were synthesized with methods identical or analogous to those shown herein. The requisite starting materials were commercially available, described in the literature, or readily synthesized by one skilled in the art of organic synthesis. The compound number given in Table I corresponds to the compound number in Table II and the structure given therein.
Human mGluR5a cDNA in pCMV6-XL6 mammalian expression plasmid was purchased from OriGene Technologies, Inc. (catalogue number SC326357) and subcloned into pcDNA3.1(−). Human embryonic kidney (HEK) 293A cells were then transfected with human mGluR5a pcDNA3.1(−) using LipofectAmine-2000 (Invitrogen) and monoclones were selected and tested for functional response using a Ca^2+ mobilization assay. Monoclones were named for the species (“H” for human) plus the location on the plate (e.g. “10H”).
HEK cells transfected with the human mGluR5a receptor (H10H or H12H cell line) were plated at 15,000 cells/well in clear-bottomed poly-D-lysine-coated assay plates (BD Falcon) in glutamate-glutamine-free growth medium and incubated overnight at 37° C. and 5% CO2.

T1 sequence (P41594 21-1180 isoform P41594-2 limits assumed): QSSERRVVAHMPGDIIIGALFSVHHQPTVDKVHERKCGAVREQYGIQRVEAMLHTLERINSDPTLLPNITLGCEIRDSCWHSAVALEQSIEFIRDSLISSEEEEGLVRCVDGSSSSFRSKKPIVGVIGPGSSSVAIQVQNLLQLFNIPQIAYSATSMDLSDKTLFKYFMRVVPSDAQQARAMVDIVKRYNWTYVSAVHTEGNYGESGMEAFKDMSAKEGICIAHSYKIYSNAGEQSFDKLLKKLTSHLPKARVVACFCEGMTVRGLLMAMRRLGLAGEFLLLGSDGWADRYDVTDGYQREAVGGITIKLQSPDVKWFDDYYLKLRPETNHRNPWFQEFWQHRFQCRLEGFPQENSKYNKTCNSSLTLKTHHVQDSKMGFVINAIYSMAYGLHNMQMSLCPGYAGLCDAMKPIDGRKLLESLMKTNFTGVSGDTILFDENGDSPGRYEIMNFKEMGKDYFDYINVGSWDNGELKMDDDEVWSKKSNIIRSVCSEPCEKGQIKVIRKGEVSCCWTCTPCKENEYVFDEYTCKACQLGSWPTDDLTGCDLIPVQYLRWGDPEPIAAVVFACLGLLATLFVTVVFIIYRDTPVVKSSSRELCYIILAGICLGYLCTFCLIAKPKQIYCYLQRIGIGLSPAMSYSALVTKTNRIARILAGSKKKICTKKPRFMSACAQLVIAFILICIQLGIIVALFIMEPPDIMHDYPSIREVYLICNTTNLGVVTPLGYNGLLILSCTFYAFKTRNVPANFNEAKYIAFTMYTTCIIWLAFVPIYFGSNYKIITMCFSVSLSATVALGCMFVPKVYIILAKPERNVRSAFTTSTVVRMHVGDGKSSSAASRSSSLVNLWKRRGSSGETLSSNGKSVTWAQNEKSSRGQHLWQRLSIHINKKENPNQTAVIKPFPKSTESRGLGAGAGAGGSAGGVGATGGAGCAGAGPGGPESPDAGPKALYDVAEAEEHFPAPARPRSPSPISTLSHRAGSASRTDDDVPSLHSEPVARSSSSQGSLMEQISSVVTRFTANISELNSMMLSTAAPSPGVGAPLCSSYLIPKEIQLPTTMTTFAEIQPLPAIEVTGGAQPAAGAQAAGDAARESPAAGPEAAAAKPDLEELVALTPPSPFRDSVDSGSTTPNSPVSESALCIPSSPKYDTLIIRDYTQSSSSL

Compound	pEC50	EC50	Emax (%)	Emax
CNc1cccc(OCc2cc3n(n2)CCN(c2ccc(F)cc2)C3=O)n1 [Example 311]	<4.52	> 30200 nM	28%	
C[C@@H]1Cn2nc(COc3cccc(C#N)c3)cc2C(=O)N1c1ccc(F)cc1 [Example 246]		214 nM		69%
O=C1c2cc(COc3ccccc3)nn2CCN1c1cccc(N2CCCC2)n1 [Example 281]	6.58	263 nM	68%	
Cc1ccc(N2CCn3nc(COc4ccc(F)cc4)cc3C2=O)cc1 [Example 222]	7.11	76 nM	64%	
O=C1c2cc(COc3ccccc3)nn2CCN1c1ccc2ncncc2c1 [Example 363]		1300 nM		65%
COCCOc1cccc(N2CCn3nc(COc4ccccc4)cc3C2=O)n1 [Example 85]		437 nM		72%
O=C1c2cc(COc3ccccc3)nn2CCN1c1ccc(F)cc1 [Example 6]	7.14	72 nM	82%	
O=C1c2cc(COc3ccccc3)nn2C(F)CN1c1ccc(F)cc1 (single isomer, unassigned) [Example 272]	7.04	91 nM	69%	
CN(C)c1ccc(F)c(N2CCn3nc(COc4ccccn4)cc3C2=O)n1 [Example 314]	6.69	204 nM	70%	
O=C1c2cc(COc3ccccn3)nn2CCN1c1ccc(F)cc1 [Example 159]	6.32	479 nM	69%	
CC1CN(CC2CC2)C(=O)c2cc(COc3ccccc3)nn21 (single isomer, unassigned) [Example 129]	<4.52	> 30200 nM	21%	
COc1ccc(N2CCn3nc(COc4ccccc4)cc3C2=O)nc1OC [Example 301]	7.02	96 nM	58%	
CN(C)c1cccc(N2CCn3nc(COc4ccccn4)cc3C2=O)n1 [Example 313]	6.75	178 nM	74%	
CCOc1ccccc1N1CCn2nc(COc3ccccc3)cc2C1=O [Example 57]	6.82	150 nM	67%	
COc1ncc(C)cc1N1CCn2nc(COc3ccccc3)cc2C1=O [Example 298]	6.58	260 nM	73%	
CC1Cn2nc(COc3ccccc3)cc2C(=O)N1c1ccc(F)cn1 (stereo not drawn) [Example 139]	6.05	891 nM	43%	
Cc1ccc(N2CCn3nc(COc4ccccc4)cc3C2=O)cc1 [Example 49]	7.09	81 nM	64%	
COc1nccc(N2CCn3nc(COc4ccc(F)cc4)cc3C2=O)n1 [Example 227]	6.59	260 nM	62%	
Cc1cc(N(C)C)nc(N2CCn3nc(COc4ccccc4)cc3C2=O)c1 [Example 290]	7.33	47 nM	56%	
COc1cc(OC)nc(N2CCn3nc(COc4ccccc4)cc3C2=O)n1 [Example 127]	6.68	210 nM	63%	
COc1nc(C)cc(N2CCn3nc(COc4ccccc4)cc3C2=O)n1 [Example 98]	6.13	741 nM	63%	
CC1Cn2nc(COc3ccccc3)cc2C(=O)N1CC1CC1 (stereo not drawn) [Example 136]	6.13	741 nM	56%	
Cc1nc2cc(N3CC(C)n4nc(COc5ccccc5)cc4C3=O)ccc2s1 (single isomer, unassigned) [Example 376]	7.12	75 nM	60%	
Cc1cc(N2CCn3nc(COc4ccccn4)cc3C2=O)ccc1F [Example 203]	6.78	166 nM	66%	
